Assay results as given in patent US11986512B2, “Compositions and methods for cancer therapy” (Thetis Pharmaceuticals LLC, priority 2021, dated 2024).

What was measured:
Assay type in all cases: in vivo, C57BL/6J male mice
B16F10 cells = assay: B16F10 model of melanoma, with anti-PD1 and anti-CTLA4
Procedure: (§1) A representative compound of Formula IV, RvE1 magnesium dilysinate, was tested for efficacy in several mouse models of cancer, including the Panc2-H7 model of pancreatic cancer, the Lewis lung carcinoma (LLC) model, the MC38 model of colorectal cancer, and the B16F10 model of melanoma. These models are well established, highly tumorigenic syngeneic models in which murine cancer cell lines are injected subcutaneously (SC) into the dorsum of C57BL/6J mice. If left untreated, these tumors grow rapidly and lead to death or euthanasia, per protocol. As detailed below in Examples 1-9 and the accompanying figures, bis RvE1 Mg-di-lysinate (Compound 1) was unexpectedly effective as an anti-cancer agent in each of these model systems when administered in a less than daily (LTD) dosing regimen. […] Without being bound by any theory, the surprising efficacy of LTD dosing of resolvins in the cancer model systems described here may be the result of durable effects on the tumor microenvironment including changes in immune cell phenotype, vascularization, stromal phenotype, and antigen presentation, as well as durable effects on the T-cell compartment such as T-cell priming and increased tumor-infiltrating lymphocytes.
Based on the finding of increased efficacy with bis RvE1 Mg-di-lysinate administered in combination with anti-PD1 monotherapy and anti-CTLA4 monotherapy, a study was conducted to investigate the efficacy of less than daily (LTD) bis RvE1 Mg-di-lysinate combined with both anti-PD1 and anti-CTLA4 in the B16F10 model of melanoma. […] See Perez-Ruiz E, et al. Nature. 2019; 569(7756):428-432. Thus, this initial study with ICI dual therapy was designed to investigate whether use of bis RvE1 Mg-di-lysinate with the ICI dual therapy could enhance efficacy, which may offer the opportunity to reduce the dose of the ICI components of the regimen without loss of efficacy. A total of sixty-four (64) C57BL/6J male mice were injected subcutaneously with 1×10e6 living B16F10 cells in the dorsum. When tumors reached a mean tumor volume of approximately 130 mme3, the mice were randomized (n=8 per group) to treatment with vehicle, bis RvE1 Mg-di-lysinate (300 ug/kg, SC, Q6D), anti-PD1 (8 mg/kg, i.p., Q3D) or anti-CTLA-4 (4 mg/kg, Q3D). The double combinations of bis RvE1 Mg-di-lysinate and anti-CTLA-4 or anti-PD1, and anti-PD1 with anti-CTLA-4, as well as the triple combination of bis RvE1 Mg-di-lysinate, anti-CTLA-4 and anti-PD1 were also investigated. All combination arms used the same dosing regimens as the individual monotherapies. The mice were sacrificed on day 12 per protocol when the mean tumor of the vehicle group reached approximately 2,000 mm^3. […] This is clinically relevant for melanoma patients receiving anti-PD1 monotherapy, which is used when the side effects of ICI dual therapy are not tolerated.

LLC cells = assay: Lewis lung carcinoma (LLC) model, with and without anti-PD1 or cisplatin; conditions: P<0.05
Procedure: as §1
To expand our understanding of bis RvE1 Mg-di-lysinate as a cancer therapy that could be used in combination with other cancer therapies including immune checkpoint inhibitors, bis RvE1 Mg-di-lysinate monotherapy and in combination either anti-PD1 or cisplatin was investigated in the LLC model of non-small cell lung cancer, which is a model known to unresponsive to anti-PD1 therapy and moderately responsive to cisplatin. Yu et al., J Exp Clin Cancer Res. 2010; 29(1):46; Lechner et al., J Immunother. 2013; 36(9):477-489. A total of forty (40) C57BL/6J male mice were injected subcutaneously with 1×10e6 living LLC cells. […] In addition, bis RvE1 Mg-di-lysinate was evaluated in combination with anti-PD1 or cisplatin. […]

Panc2-H7 cells = assay: Panc2-H7 model, daily (QD) versus weekly (Q7D) dosing; conditions: SC
Procedure: as §1
Based on the previous findings in the MC38 colorectal cancer model with less than daily (LTD) dosing, a study in the Panc2-H7 model was conducted to assess the efficacy of LTD dosing of bis RvE1 Mg-di-lysinate in a different tumor model. A total of forty (40) C57BL/6J male mice were injected subcutaneously with 1×10e6 living Panc2-H7 cells. Once tumors reached 160-320 mm^3 in size, the mice were randomized (n=8 per group) to treatment with vehicle or SC injection with bis RvE1 Mg-di-lysinate at 30 ug/kg and 300 ug/kg (QD, Q7D).

MC-38 cells = assay: MC38 model of colorectal cancer, subcutaneous tumors; conditions: 300 ug/kg, SC, single agent, P<0.05 vs placebo
Procedure: as §1, with “lymphocytes. […]” for “lymphocytes.”

[1] = triple therapy (bis RvE1 Mg-di-lysinate + anti-CTLA-4 + anti-PD1), p<0.001

## CC[C@@H](O)/C=C/C=C\C[C@@H](O)/C=C/C=C/C=C\[C@@H](O)CCCC(=O)O [bis RvE1 Mg-di-lysinate]
B16F10 cells; double combination of bis RvE1 Mg-di-lysinate 300 ug/kg SC Q6D and anti-PD1 8 mg/kg i.p. Q3D, p<0.05
  inhibition compared to anti-PD1 monotherapy: 54%
B16F10 cells; monotherapy, 300 ug/kg, SC, Q6D
  efficacy of LTD dosing: effective as monotherapy
B16F10 cells; [1]
  tumor growth inhibition compared to anti-CTLA-4 monotherapy: 71%
  tumor growth inhibition compared to anti-PD1 monotherapy: 87%
B16F10 cells; triple therapy: bis RvE1 Mg-di-lysinate 300 ug/kg SC Q6D + anti-CTLA-4 4 mg/kg Q3D + anti-PD1 8 mg/kg i.p. Q3D, p<0.05
  inhibition, tumor volume at day 12 divided by tumor volume at day 0: 67%
LLC cells; bis RvE1 Mg-di-lysinate 30 ug/kg SC QD in combination with anti-PD1 8 mg/kg IP Q3D
  tumor volume (Day 11 vs Day 0): reduced tumor volume compared to placebo and cisplatin and anti-PD1 alone
LLC cells; bis RvE1 Mg-di-lysinate 30 ug/kg SC QD in combination with cisplatin 5 mg/kg i.p Q5D
  tumor volume (Day 11 vs Day 0): reduced tumor volume compared to placebo and cisplatin and anti-PD1 alone
Panc2-H7 cells; 30 ug/kg, Q7D
  tumor volume (Day 20 vs Day 0): inhibition relative to placebo control
Panc2-H7 cells; 30 ug/kg, QD
  tumor volume (Day 20 vs Day 0): inhibition relative to placebo control
Panc2-H7 cells; 300 ug/kg, Q7D, P<0.05 vs placebo control
  tumor volume (Day 20 vs Day 0): greatest inhibition
Panc2-H7 cells; 300 ug/kg, QD
  tumor volume (Day 20 vs Day 0): inhibition relative to placebo control
MC-38 cells; Q3D
  tumor volume (Day 15 vs Day 0): effective as a single agent
MC-38 cells; QD
  tumor volume (Day 15 vs Day 0): effective as a single agent
